Laboratory results published in US20210121440A1, “ACNE TREATMENT” (priority 2003, published 2021).

Tests used:
[1] = system: patients; details: oral administration; especially older patients having an impaired renal function; cited from earlier work
[2] = system: total lipids and pro-inflammatory lipid fractions in the sebum; assay: Lipids and lipid fractions in the sebum by chromatography; format: in vivo, human; details: 12th week of treatment, 4×600 mg/d p.o.
Description: (§1) For treating the inflammatory acne 10 patients having acne papulopustolosa (m:f 6:4, age 19±5 years) were treated orally with a selective 5-lipoxygenase inhibitor, namely with (±)-1-1.benzo[b]thien—2-ylethyl)-1-hydroxyurea (Zileuton) 4×600 mg/d p.o. for a period of three months. The number of lesions and the general degree of severity index according to Allen and […] (Allen B S, Smith J G: Various parameters for grading acne. Arch Dermatol. 1982; 118: 23-25) were clinically judged. Moreover, the surface lipids using Sebumeter® and the liver enzymes in the serum were determined at the beginning of the study, in the 2nd, 4th, 8th and 12th weeks of treatment and 2 weeks after completion of the therapy. The LTB4 detection in the blood by radio-immuno-assay and the lipid fractions in the serum by chromatography were examined at the beginning and in the 12th week of treatment. The patients were photographed at the beginning and at the end of the treatment. The degree of severity index of acne decreased continuously and dependent on the time (41±28% of the initial value in the 12th week of treatment; p<0.05). […] The degree of clinical improvement strongly correlated with the reduction of the total lipids in the sebum (p=0.0009, r^2=0.81) and the free fatty acid (p=0.0003, r^2=0.82). […] To sum up, thus first indirect proofs could be furnished for a genuine inflammatory etiology of acne.

[3] = system: patients having acne papulopustolosa; assay: Clinical judgement of number of lesions and degree of severity index (Allen and Smith) in acne patients treated orally; format: in vivo, human
Description: as §1

[4] = system: patients having acne papulopustolosa; assay: Side-effects in treated acne patients; format: in vivo, human; details: 4×600 mg/d p.o. for three months; 10 patients
Description: as §1, with “of acne. […]” for “of acne.”

[5] = system: LTB4 in the blood; assay: LTB4 detection in the blood by radio-immuno-assay; format: in vivo, human; details: beginning vs 12th week of treatment; 4×600 mg/d p.o.
Description: as §1

[6] = system: surface lipids; assay: Surface lipids using Sebumeter; format: in vivo, human; details: 4×600 mg/d p.o. for three months
Description: as §1

Q: With `CC(C(=O)O)c1ccc2oc(-c3ccc(Cl)cc3)nc2c1` (centres unmarked) [benoxaprofen] as the compound, how does the “disadvantageous effects observed in clinical tests” value [1] read?
A: a photosensitivity, exzema, milii, onycholysis and a hepatotoxicity with jaundice

Q: For `CC(c1cc2ccccc2s1)N(O)C(N)=O` (racemic) [Zileuton, (±)-1-(1-benzo[b]thien-2-ylethyl)-1-hydroxy-urea], which “decrease of lipoperoxides in the sebum” value [2] is on record?
A: 26±30%

Q: What about the “decrease of pro-inflammatory free fatty acids in the sebum” value [2] of the same compound?
A: 22±18%

Q: And the “decrease of total lipids in the sebum” value ([2]; p<0.05)?
A: 35±51%

Q: What about the response of comedones ([3]; 4×600 mg/d p.o. for three months) of the same compound?
A: comedones did not respond

Q: What about the “decrease of the number of inflammatory lesions up to” value ([3]; 4×600 mg/d p.o. for three months, p<0.01) of the same compound?
A: 29±24%

Q: What about the “degree of severity index of acne, % of the initial value” ([3]; 12th week of treatment, 4×600 mg/d p.o., 10 patients, p<0.05) of the same compound?
A: 41±28%

Q: What about the “all examined parameters during follow-up” value ([3]; two-weeks' follow-up phase after completion of the therapy) of the same compound?
A: remained practically unchanged

Q: And the “subjective and objective side-effects” value [4]?
A: Neither subjective nor objective side-effects were noticed

Q: And the “LTB4 in the blood” value [5]?
A: not influenced

Q: What about the surface lipids [6] of the same compound?
A: not influenced
